According to patent publication US7335644B2, “Anti-hypertensive molecules and process for preparation thereof” (Council of Scientific and Industrial Research, priority 2003, dated 2008):

Tested on: arterial blood pressure of hypertensive Wistar rats
Conditions: 1 mg/kg

C[C@H](CS)C(=O)N1CCC[C@H]1C(=O)O [captopril]
fall of blood pressure (reference inhibitor): 60 mm Hg
time during which still quite effective in blocking angiotensin-converting enzyme (reference inhibitor): ≥ 180 min
time for blood pressure to return to baseline (reference inhibitor (not shown)): 240 min
